From patent publication US6407058B1, “Modifying the permeability of physiological barriers” (Eisai Co., Limited, priority 1996, dated 2002)

How the values were obtained:
p100/p120 [1] = test: p100/p120 electrophoretic mobility (band shift) by immunoblotting, MDCK I cells; format: cell-based
p100/p120 [2] = test: p100/p120 electrophoretic mobility, human umbilical vein endothelial cells (HUVECs); format: cell-based; details: HUVEC
p100/p120 [3] = test: as above; format: cell-based; details: HUVEC; for mobility of p100 and p120, blocker alone: 10 μM blocker alone
Method: (§1) Cells were treated with or without 200 nM PDB for 30 minutes, lysed into Laemmli sample buffer, separated by electrophoresis and analysed by immunoblotting with antibodies recognising p100 and p120.
Human umbilical vein endothelial cells were incubated with histamine (His), pyrilamine (Pyr) or cimetidine (Cim) alone or in combination. As indicated, cells were preincubated in the absence or presence of cimetidine (10 μM) or pyrilamine (10 μM) for 10 minutes and then treated with or without histamine (10 μM) for a further 10 minutes. The cells were extracted and protein analysed by gel electrophoresis and immunoblotting. […] In the following examples, increase mobility of p100/p120 means decreased phosphorylation.
(§2) Whole cell lysates were prepared by rapidly replacing the culture medium in 6.5 mm with hot Laemmli sample buffer, followed by heating at 100° C. for 5 minutes. Immunoprecipitations were carried out at 4° C. Confluent monolayers of cells were washed rapidly with ice cold PBS (containing 0.9 mM CaCl2 and 0.5 mM MgCl2) before addition of 0.5 ml of the appropriate buffer. The filters were then gently scraped, and the lysate was removed and centrifuged at 14000× g. The supernatant was precleared with 10% (w/v) protein A-Sepharose in lysis buffer for 30-60 minutes. Appropriate primary antibodies were added to the lysate, and after 2-3 hours the immunecomplex was isolated, using rabbit anti-mouse secondary antibodies (Jackson Immunoresearch Labs Inc., West Grove, Pa.) and protein A-Sepharose. The beads were washed fives times with lysis buffer, and the bound protein was solubilized in SDS-sample buffer, followed by heating at 100° C. for 5 minutes.
Cell extracts or immunoprecipitates in SDS sample buffer were resolved by SDS-PAGE. The slab gels were then equilibrated in buffer comprising; 48 mM Tris, 39 mM glycine, 20% methanol and 0.03% SDS. Proteins were transferred to nitrocellulose filters (Hybond ECL; Amersham), which were Ponceau S stained and then blocked for 2 hours at 37° C. with 1% BSA in PBS containing 0.05% Tween-20. Filters were then probed with p120 antibody, at a dilution of 1:2500. After washing, filters were incubated with horseradish peroxidase conjugated anti-mouse antibody (Amersham), at a dilution of 1:5000. The filters were then extensively washed in PBS/0.5% Tween-20, and immunoreactive bands were detected by enhanced chemiluminescence (Amersham) following the manufacturers instructions.

p100/p120 [4] = test: p100/p120 electrophoretic mobility (band shift) by immunoblotting, MDCK I cells; format: cell-based; details: MDCK I; for block of PDB-induced p100/p120 band shift: pretreatment 5 minutes (bisindolylmaleimide I or V 2.5 μM, Ro 31-8425 5 μM), then 200 nM PDB 30 minutes; for reversal of PDB-induced p100/p120 band shift: 200 nM PDB 30 minutes, then 2.5 μM inhibitor added in presence of PDB
Method: The migration of the cellular proteins p100 and p120 during electrophoresis is increased following PDB-treatment of MDCK I cells. PDB (phorbol-12,13-dibutyrate) is a pharmacological activator of protein kinase C. MDCK I cells are a kidney derived epithelial cell line, with particularly well developed junctional complexes. Cells treated for 30 minutes with either 200 nM PDB (+) or vehicle (−) were then lysed into Laemmli sample buffer, and separated by electrophoresis using 6% acrylamide gels. Proteins were transferred to nitrocellulose and probed with antibodies to p100/p120, and then reprobed with E-cadherin and paxillin antibodies.
(§3) MDCK strain I and II cells were provided by Barry Gumbiner (memorial Sloan-Kettering Cancer Center, NY). LLC-PK1 and Caco-2 cells were obtained from the European Collection of Animal Cell Cultures. All cells were maintained at 37° C. under 5% CO2 in humidified air. MDCK strain I and II cells were maintained in MEM containing 10% FCS, 100 U/ml penicillin, 100 μg/ml streptomycin and 2 mM L-glutamine. Caco-2 cells were maintained in MEM containing 15% FCS, 1% non-essential amino acids and 1 μg/ml bovine insulin (Sigma I-6634). LLC-PK1 cells were grown in M199 (Gibco), 10% FCS, 100 U/ml penicillin, 100 μg/ml streptomycin and 2 mM L-glutamine. For whole cell lysate analysis, 10^5 cells were plated on 6.5 mm diameter, 0.4 μm, polycarbonate Transwell filters from Costar, in 0.25 ml of medium. The basolateral chamber contained 0.75 ml of medium. For immunoprecipitation, 5×10^5 cells were plated onto 24 mm Transwell filters, in 2 ml of medium, with 3 ml of medium in the lower chamber. Cells were used 4-7 days after plating. Tissue culture materials were from Gibco. Porcine brain endothelial cells were isolated and grown by modifications of a previously published procedure (Rubin et al., 1991). Brain capillary fragments were plated on dishes coated with rat tail collagen and human fibronectin. The cultures were fed every other day with growth medium composed of 50% astrocyte-conditioned medium and 50% Dulbecco's Modified Eagle Medium containing 10% plasma-derived serum, 125 μg/ml heparin, antibiotics and glutamine. They were incubated in a humidified atmosphere of 10% CO2 at 37° C. When the endothelial cells were approximately 50% confluent (after 4-6 days in culture), they were trypsinized and plated onto collagen-coated polycarbonate Transwell filters (6.5 mm diameter, 0.4 μm pore size, tissue culture treated, Costar Corp, Cambridge, Mass., U.S.A.) in the same medium (250 μl apically, 750 μl basolaterally). After 2-3 days on filters, the medium was switched to a 1:1 mixture of astrocyte-conditioned medium and a Dulbecco's Modified Eagle Medium-based, chemically defined medium (‘N2’, Rubin et al., 1991; Bottenstein and Sato, 1979). The final concentration of plasma-derived serum was 5%. Human umbilical vein endothelial cells were from Clonetics.
as §2
Cell extracts or immunoprecipitates in SDS sample buffer were resolved by SDS-PAGE. […]

[5] = system: pig brain endothelial cell tight junctions; test: transcellular electrical resistance (TER) of pig brain endothelial cell cultures; format: cell-based
Method: After 2 minutes the Transwells were returned to control medium and transcellular electrical resistance measurements were taken every minute for the following 18 minutes.
as §3
Transcellular electrical resistance (TER) measurements were taken with a pair of fixed, current-passing, voltage measuring electrodes (World Precision Instruments, Stevenage, Hertfordshire, U.K.). TER values are expressed in Ωcm^2 and were corrected for the resistance of cell-free filters.

p100/p120 [6] = test: p100/p120 electrophoretic mobility, primary pig brain endothelial cells (PBECs); format: cell-based; details: for mobility of p120 and p100: LPA 10 μM
Method: as §1, §3
as §2, with “A-Sepharose.” for “A-Sepharose. The beads were washed fives times with lysis buffer, and the bound protein was solubilized in SDS-sample buffer, followed by heating at 100° C. for 5 minutes.”

[7] = system: brain endothelial cells tight junction; test: tight junction permeability in pig brain endothelial cells; format: cell-based; details: results not shown
[8] = system: brain endothelial cells tight junction; details: pig brain endothelial cells (Schulze et al.); cited from earlier work
[9] = 15 minutes, histamine 10 μM, LPA 10 μM, ATP 100 μM

## CN[C@@H]1C[C@H]2O[C@@](C)([C@@H]1OC)n1c3ccccc3c3c4c(c5c6ccccc6n2c5c31)C(=O)NC4 [staurosporine]
p100/p120 [1]; 100 nM staurosporine, 60 minutes
  effect on p100/p120 mobility: induced a p100/p120 band shift

## CCCCCCCC(=O)OCC(CO)OC(=O)CCCCCCC (stereo not shown) [DiC8, 1,2-dioctanoylglycerol]
p100/p120 [1]; 0.5 mM DiC8, 10 minutes
  effect on p100/p120 mobility: induces a p100/p120 mobility shift

## C=C1[C@@H](O)[C@@H]2O[C@]3(CC[C@H](/C=C/[C@@H](C)[C@@H]4CC(C)=C[C@@]5(O[C@H](C[C@@](C)(O)C(=O)O)CC[C@H]5O)O4)O3)CC[C@H]2O[C@@H]1[C@@H](O)C[C@H](C)[C@H]1O[C@@]2(CCCCO2)CC[C@H]1C [okadaic acid]
p100/p120 [1]; 1 μM okadaic acid, 60 minutes
  effect on p100/p120 mobility: upward band shift

## NCCc1c[nH]cn1 [histamine]
p100/p120 [2]; 5 minutes, histamine 10 μM, PDB 200 nM
  mobility of p120 and p100: increased mobility
p100/p120 [2]; [9]
  mobility of p100 and p120: increase in the mobility
p100/p120 [2]; histamine 10 μM, 10 minutes
  mobility of p100 and p120: induced an increased mobility
p100/p120 [2]; histamine, times indicated (FIG. 11)
  mobility of p100 and p120, time course: rapid increase in the mobility

## CN/C(=N/CCSCc1nc[nH]c1C)NC#N [cimetidine]
p100/p120 [3]
  mobility of p100 and p120, blocker alone: no effect

## Cn1cc(C2=C(c3c4n(c5ccccc35)CCC(CN)C4)C(=O)NC2=O)c2ccccc21 (stereo not shown) [Ro 31-8425]
p100/p120 [4]
  block of PDB-induced p100/p120 band shift: completely abolished

## COc1ccc(CN(CCN(C)C)c2ccccn2)cc1 [pyrilamine]
p100/p120 [3]
  mobility of p100 and p120, blocker alone: no effect
p100/p120 [3]; 10 μM preincubation 10 minutes, then histamine 10 μM 10 minutes
  block of histamine effect on p100/p120 mobility: blocked the histamine effect

## COC[C@@H]([C@H](O)[C@H](O)C(=O)NCC[C@H](C)c1nc(/C=C/C[C@@H]2O[C@]3(C[C@@H](O)[C@@H]2C)O[C@H]([C@H](C[C@H](O)[C@H](C)[C@H](O)[C@H](C)/C=C(C)/C(C)=C/C=C/C(C)=C\C#N)OC)[C@H](OP(=O)(O)O)C3(C)C)co1)N(C)C [calyculin A]
p100/p120 [1]; 100 nM calyculin A, 60 minutes
  effect on p100/p120 mobility: upward band shift

## OC[C@@H](O)[C@@H](O)[C@H](O)[C@H](O)CO [mannitol]
[5]; 0.2-0.4 M mannitol, up to 6 hours
  transcellular electrical resistance: causes a drop
[5]; 0.4M or 0.8M mannitol 2 minutes, then control medium 18 minutes
  reversibility of drop in transcellular electrical resistance: fully reversible
[5]; 0.8M mannitol, recorded over 2 minutes
  time at which drop in transcellular electrical resistance is clearly seen: ≤ 20 s

## Nc1ncnc2c1ncn2[C@@H]1O[C@H](COP(=O)(O)OP(=O)(O)OP(=O)(O)O)[C@@H](O)[C@H]1O [ATP]
p100/p120 [2]; [9]
  mobility of p100 and p120: increase in the mobility

## CN(C)CCCn1cc(C2=C(c3c[nH]c4ccccc34)C(=O)NC2=O)c2ccccc21 [bisindolylmaleimide I]
p100/p120 [4]
  reversal of PDB-induced p100/p120 band shift: can be reversed
  block of PDB-induced p100/p120 band shift: completely abolished
p100/p120 [6]; 2.5 μM bisindolylmaleimide 5 minutes pretreatment, then 0.3M sorbitol
  prevention of sorbitol-induced increase in p100/p120 mobility: not prevented
p100/p120 [6]; bisindolylmaleimide 2.5 μM preincubation 10 minutes, then LPA 10 μM 70 minutes
  block of LPA-induced p100/p120 mobility increase: not blocked
[7]
  block of LPA-induced increase in tight junction permeability: did not block
p100/p120 [2]; bisindolylmaleimide 2 μM preincubation 15 minutes, then PDB 200 nM 5 minutes
  block of phorbol dibutyrate effect on p100/p120 mobility: blocked
p100/p120 [2]; bisindolylmaleimide 2 μM preincubation 15 minutes, then histamine 10 μM 5 minutes
  block of histamine effect on p100/p120 mobility: not so strongly affected
[5]; 2.5 μM bisindolylmaleimide pre-incubation, then 0.3M sorbitol 10 minutes, from 643 before treatment
  transcellular electrical resistance after sorbitol following bisindolylmaleimide pre-incubation: 93 Ωcm^2

## CCCOc1ccc2c(c1)c1c3c(c4c5ccccc5n5c4c1n2[C@H]1C[C@](O)(C(=O)OC)[C@]5(C)O1)CNC3=O [KT 5926]
p100/p120 [1]; 1 μM KT 5926
  effect on p100/p120 mobility: also induced a p100/p120 band shift

## CN1C(=O)C(c2c[nH]c3ccccc23)=C(c2c[nH]c3ccccc23)C1=O [bisindolylmaleimide V]
p100/p120 [4]
  reversal of PDB-induced p100/p120 band shift: did not reverse
  block of PDB-induced p100/p120 band shift: unable to block

## lysophosphatidic acid [LPA]
p100/p120 [6]; pig brain endothelial cells, 30 minutes
  mobility of p120 and p100: increased mobility
p100/p120 [6]; pig brain endothelial cells, 70 minutes
  mobility of p120 and p100: increased mobility
p100/p120 [6]; pig brain endothelial cells, further experiments
  onset of LPA effect on p100/p120: within a few minutes
[8]
  tight junction permeability: increases tight junction permeability
p100/p120 [2]; [9]
  mobility of p100 and p120: increase in the mobility

## OC[C@@H](O)[C@@H](O)[C@H](O)[C@@H](O)CO [sorbitol]
[5]; 0.3M sorbitol, 10 minutes, from 677 before treatment
  transcellular electrical resistance after treatment: 73 Ωcm^2

## CCCC(=O)O[C@@H]1[C@@H](C)[C@@]2(O)[C@@H](C=C(CO)C[C@@]3(O)C(=O)C(C)=C[C@@H]23)[C@@H]2C(C)(C)[C@]12OC(=O)CCC [4α-PDB]
p100/p120 [4]; 200 nM 4α-PDB, 30 minutes
  effect on p100/p120 mobility: no effect
